Assay results published in PubChem BioAssay AID248 (DTP/NCI, 2004).
Where “and” joins values, the source holds several entries; their conditions need not be identical. Equal entries are not always repeated. Inconclusive results and toxic doses are left out. Rule as the data show it: active = T/C of 150% or more; inactive = T/C below 125%.

Tested on: L1210 leukemia ip in BDF1 mice, survival T/C
Assay: NCI In Vivo Anticancer Drug Screen. Data for tumor model L1210 Leukemia (intraperitoneal) in B6D2F1 (BDF1) mice
Conditions: endpoint: mean survival time, higher = longer survival
How it was run: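 Tumor cells were implanted, animals were treated, and survival was followed. The result divides the treated measurement by the vehicle-control measurement.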

[1] = dose: 50.0 mg/kg/injection, schedule: Q01DX009 (ip), vehicle: saline with Tween-80
[2] = dose: 100.0 mg/kg/injection, schedule: Q04DX003 (ip), vehicle: Klucel (hydroxypropylcellulose) (HPC)
[3] = dose: 200.0 mg/kg/injection, schedule: Q04DX003 (ip), vehicle: Klucel (hydroxypropylcellulose) (HPC)
[4] = dose: 25.0 mg/kg/injection, schedule: Q01DX009 (ip), vehicle: saline
[5] = dose: 50.0 mg/kg/injection, schedule: Q01DX009 (ip), vehicle: saline
[6] = dose: 100.0 mg/kg/injection, schedule: Q04DX003 (ip), vehicle: saline
[7] = dose: 100.0 mg/kg/injection, schedule: Q01DX009 (ip), vehicle: Klucel (hydroxypropylcellulose) (HPC)
[8] = dose: 200.0 mg/kg/injection, schedule: Q01DX009 (ip), vehicle: Klucel (hydroxypropylcellulose) (HPC)
[9] = dose: 400.0 mg/kg/injection, schedule: Q01DX009 (ip), vehicle: Klucel (hydroxypropylcellulose) (HPC)
[10] = dose: 100.0 mg/kg/injection, schedule: Q01DX001 (ip), vehicle: saline with Tween-80
[11] = dose: 100.0 mg/kg/injection, schedule: Q01DX009 (ip), vehicle: saline with Tween-80
[12] = dose: 200.0 mg/kg/injection, schedule: Q01DX009 (ip), vehicle: saline with Tween-80
[13] = dose: 200.0 mg/kg/injection, schedule: Q04DX003 (ip), vehicle: saline
[14] = dose: 400.0 mg/kg/injection, schedule: Q04DX003 (ip), vehicle: saline
[15] = dose: 100.0 mg/kg/injection, schedule: Q01DX009 (ip), vehicle: saline
[16] = dose: 200.0 mg/kg/injection, schedule: Q01DX009 (ip), vehicle: saline
[17] = dose: 400.0 mg/kg/injection, schedule: Q01DX009 (ip), vehicle: saline

Measured: T/C

CCCCCOS(=O)(=O)c1ccc(Cl)c([N+](=O)[O-])c1
inactive: dose: 12.5 mg/kg/injection, schedule: Q01DX009 (ip), vehicle: saline with Tween-80 93 % of control | dose: 25.0 mg/kg/injection, schedule: Q01DX009 (ip), vehicle: saline with Tween-80 87 % of control | dose: 25.0 mg/kg/injection, schedule: Q04DX003 (ip), vehicle: saline with Tween-80 95 % of control | [1] 98 % of control | dose: 50.0 mg/kg/injection, schedule: Q04DX003 (ip), vehicle: saline with Tween-80 90 % of control

ClCCOCOCCCl
inactive: dose: 20.0 mg/kg/injection, schedule: Q04DX003 (ip), vehicle: Klucel (hydroxypropylcellulose) (HPC) 104 % of control | dose: 40.0 mg/kg/injection, schedule: Q04DX003 (ip), vehicle: Klucel (hydroxypropylcellulose) (HPC) 104 % of control | dose: 80.0 mg/kg/injection, schedule: Q04DX003 (ip), vehicle: Klucel (hydroxypropylcellulose) (HPC) 101 % of control

O=C(O)c1cc(C(Cl)(Cl)Cl)ccc1C(Cl)(Cl)Cl
inactive: dose: 50.0 mg/kg/injection, schedule: Q01DX009 (ip), vehicle: saline sonified 95 % of control | dose: 50.0 mg/kg/injection, schedule: Q04DX003 (ip), vehicle: Klucel (hydroxypropylcellulose) (HPC) 97 % of control | dose: 100.0 mg/kg/injection, schedule: Q01DX009 (ip), vehicle: saline sonified 101 % of control | [2] 96 % of control | dose: 200.0 mg/kg/injection, schedule: Q01DX009 (ip), vehicle: saline sonified 98 % of control | [3] 103 % of control

CCCCNC(C)C(=O)c1ccccc1 (centres undefined)
inactive: dose: 12.5 mg/kg/injection, schedule: Q04DX003 (ip), vehicle: saline 100 % of control | [4] 101 % of control | dose: 25.0 mg/kg/injection, schedule: Q04DX003 (ip), vehicle: saline 90 % of control | [5] 101 % of control | dose: 50.0 mg/kg/injection, schedule: Q04DX003 (ip), vehicle: saline 100 % of control | [6] 94 % of control

O=C(Nc1ccc(F)c([N+](=O)[O-])c1)N(Cc1ccccc1)c1ccccc1
inactive: [7] 101 % of control | [8] 104 % of control | [9] 98 % of control

CC(C)(C)NC(=O)NC1CCCCC1
inactive: [10] 95 % of control | [11] 94 % of control and 110 % of control | dose: 100.0 mg/kg/injection, schedule: Q04DX002 (ip), vehicle: saline with Tween-80 97 % of control and 100 % of control | [6] 101 % of control | dose: 200.0 mg/kg/injection, schedule: Q01DX001 (ip), vehicle: saline with Tween-80 98 % of control | [12] 100 % of control and 87 % of control | dose: 200.0 mg/kg/injection, schedule: Q04DX002 (ip), vehicle: saline with Tween-80 97 % of control | [13] 111 % of control | dose: 400.0 mg/kg/injection, schedule: Q01DX001 (ip), vehicle: saline with Tween-80 95 % of control | dose: 400.0 mg/kg/injection, schedule: Q01DX009 (ip), vehicle: saline with Tween-80 100 % of control and 115 % of control | dose: 400.0 mg/kg/injection, schedule: Q04DX002 (ip), vehicle: saline with Tween-80 94 % of control and 90 % of control | [14] 101 % of control

CN1C2CSCC1CC(O)C2 (centres undefined)
inactive: dose: 37.0 mg/kg/injection, schedule: Q04DX003 (ip), vehicle: other 101 % of control | dose: 37.5 mg/kg/injection, schedule: Q01DX009 (ip), vehicle: other 105 % of control | dose: 75.0 mg/kg/injection, schedule: Q01DX001 (ip), vehicle: other 102 % of control | dose: 75.0 mg/kg/injection, schedule: Q01DX001 (ip), vehicle: saline 103 % of control | dose: 75.0 mg/kg/injection, schedule: Q01DX009 (ip), vehicle: other 104 % of control | dose: 75.0 mg/kg/injection, schedule: Q04DX003 (ip), vehicle: other 98 % of control | dose: 150.0 mg/kg/injection, schedule: Q01DX001 (ip), vehicle: other 93 % of control | dose: 150.0 mg/kg/injection, schedule: Q01DX009 (ip), vehicle: other 104 % of control | dose: 150.0 mg/kg/injection, schedule: Q04DX003 (ip), vehicle: other 101 % of control

O=c1ccc([N+](=O)[O-])c[nH]1
inactive: [15] 97 % of control and 93 % of control | [6] 105 % of control | [16] 101 % of control and 100 % of control | [13] 96 % of control and 103 % of control | [17] 105 % of control and 95 % of control | [14] 94 % of control and 96 % of control

NC(N)=NC(N)=Nc1ccc([As](=O)(O)O)c(O)c1
inactive: [4] 101 % of control | dose: 40.0 mg/kg/injection, schedule: Q01DX009 (ip), vehicle: Klucel (hydroxypropylcellulose) (HPC) 108 % of control | [5] 98 % of control | dose: 80.0 mg/kg/injection, schedule: Q01DX009 (ip), vehicle: Klucel (hydroxypropylcellulose) (HPC) 101 % of control | [15] 108 % of control | dose: 160.0 mg/kg/injection, schedule: Q01DX009 (ip), vehicle: Klucel (hydroxypropylcellulose) (HPC) 104 % of control

CC1=CCCC1
inactive: [15] 101 % of control | [16] 95 % of control | [17] 95 % of control

O=C(O)CC1Sc2ccccc2NC1=O (centres undefined)
inactive: dose: 100.0 mg/kg/injection, schedule: Q01DX001 (ip), vehicle: Klucel (hydroxypropylcellulose) (HPC) 105 % of control | dose: 200.0 mg/kg/injection, schedule: Q01DX001 (ip), vehicle: Klucel (hydroxypropylcellulose) (HPC) 94 % of control | dose: 400.0 mg/kg/injection, schedule: Q01DX001 (ip), vehicle: Klucel (hydroxypropylcellulose) (HPC) 105 % of control

CC1(C)CN1P(=O)(Oc1ccccc1)N1CC1(C)C (centres undefined)
inactive: dose: 88.0 mg/kg/injection, schedule: Q01DX001 (ip), vehicle: carboxymethylcellulose (CMC) 111 % of control

Cc1c(Cl)cccc1NC(=O)NC(=O)c1ccccc1
inactive: [1] 101 % of control | [11] 108 % of control | [12] 97 % of control

CCOC(=O)OCCc1ccccc1
inactive: dose: 100.0 mg/kg/injection, schedule: Q01DX001 (ip), vehicle: carboxymethylcellulose (CMC) 106 % of control | dose: 100.0 mg/kg/injection, schedule: Q01DX009 (ip), vehicle: carboxymethylcellulose (CMC) 103 % of control and 92 % of control | dose: 100.0 mg/kg/injection, schedule: Q04DX002 (ip), vehicle: carboxymethylcellulose (CMC) 97 % of control and 109 % of control | dose: 100.0 mg/kg/injection, schedule: Q04DX003 (ip), vehicle: carboxymethylcellulose (CMC) 98 % of control | dose: 200.0 mg/kg/injection, schedule: Q01DX001 (ip), vehicle: carboxymethylcellulose (CMC) 100 % of control | dose: 200.0 mg/kg/injection, schedule: Q01DX009 (ip), vehicle: carboxymethylcellulose (CMC) 95 % of control and 103 % of control | dose: 200.0 mg/kg/injection, schedule: Q04DX002 (ip), vehicle: carboxymethylcellulose (CMC) 98 % of control and 100 % of control | dose: 200.0 mg/kg/injection, schedule: Q04DX003 (ip), vehicle: carboxymethylcellulose (CMC) 98 % of control | dose: 400.0 mg/kg/injection, schedule: Q01DX001 (ip), vehicle: carboxymethylcellulose (CMC) 105 % of control | dose: 400.0 mg/kg/injection, schedule: Q01DX009 (ip), vehicle: carboxymethylcellulose (CMC) 93 % of control and 98 % of control | dose: 400.0 mg/kg/injection, schedule: Q04DX002 (ip), vehicle: carboxymethylcellulose (CMC) 97 % of control and 106 % of control | dose: 400.0 mg/kg/injection, schedule: Q04DX003 (ip), vehicle: carboxymethylcellulose (CMC) 102 % of control

COC(=O)C1=C(O)C(=O)N(c2ccccc2)C1
inactive: [10] 88 % of control

CCCCCCCCCCCCNC(=O)C[n+]1ccc(C(N)=O)cc1
inactive: [6] 94 % of control

CCN(CC)C(=O)N1CCN(C)CC1
inactive: [7] 101 % of control | [2] 94 % of control | [8] 106 % of control | [3] 98 % of control | [9] 104 % of control | dose: 400.0 mg/kg/injection, schedule: Q04DX003 (ip), vehicle: Klucel (hydroxypropylcellulose) (HPC) 96 % of control

CNC1C(OC2C(OC3C(O)C(O)C(N=C(N)N)C(O)C3N=C(N)N)OC(C)C2(O)C=O)OC(CO)C(O)C1O (centres undefined)
inactive: dose: 100.0 mg/kg/injection, schedule: Q01DX001 (ip), vehicle: saline 108 % of control | dose: 200.0 mg/kg/injection, schedule: Q01DX001 (ip), vehicle: saline 106 % of control | dose: 400.0 mg/kg/injection, schedule: Q01DX001 (ip), vehicle: saline 114 % of control
